The values that follow come from ChEMBL document CHEMBL4813981, “Synthesis and in vitro antibacterial activity of new aminothiazole-oximepiperidone cephalosporins” (2021).

What all share (assay type): functional
Assay [1] concerns Enterococcus faecalis. The assay is described as follows: Antibacterial activity against Enterococcus faecalis ATCC 51299 assessed as reduction in bacterial growth.
For assay [2], the system named is Escherichia coli. The experiment in a line: Antibacterial activity against Escherichia coli ATCC 25922 assessed as reduction in bacterial growth.
Assay [3] concerns Escherichia coli. The assay is described as follows: Antibacterial activity against Escherichia coli ATCC 35218 assessed as reduction in bacterial growth.
Assay [4] concerns Escherichia coli. The assay is described as follows: Antibacterial activity against Escherichia coli NCTC 13353 assessed as reduction in bacterial growth.
Assay [5] concerns Escherichia coli. The assay is described as follows: Antibacterial activity against Escherichia coli 15-3 overexpressing extended spectrum beta-lactamases assessed as reduction in bacterial growth.
Assay [6] concerns Escherichia coli. The assay is described as follows: Antibacterial activity against Escherichia coli 15-4 overexpressing extended spectrum beta-lactamases assessed as reduction in bacterial growth.
The subject of assay [7] is Escherichia coli. The assay is described as follows: Antibacterial activity against Escherichia coli 15-5 overexpressing extended spectrum beta-lactamases assessed as reduction in bacterial growth.
Assay [8] deals with Klebsiella pneumoniae. The assay is described as follows: Antibacterial activity against Klebsiella pneumoniae ATCC 700603 assessed as reduction in bacterial growth.
The subject of assay [9] is Klebsiella pneumoniae. The experiment in a line: Antibacterial activity against Klebsiella pneumoniae ATCC BAA-1705 assessed as reduction in bacterial growth.
The subject of assay [10] is Klebsiella pneumoniae. The assay is described as follows: Antibacterial activity against Multidrug resistant Klebsiella pneumoniae KR 15-1 assessed as reduction in bacterial growth.
The test system of assay [11] is Klebsiella pneumoniae. The experiment in a line: Antibacterial activity against Multidrug resistant Klebsiella pneumoniae KR 15-2 assessed as reduction in bacterial growth.
Assay [12] concerns Klebsiella pneumoniae. The assay is described as follows: Antibacterial activity against Multidrug resistant Klebsiella pneumoniae KR 15-3 assessed as reduction in bacterial growth.
In assay [13] the test system is Acinetobacter baumannii. The experiment in a line: Antibacterial activity against Acinetobacter baumannii NCTC 13304 assessed as reduction in bacterial growth.
The test system of assay [14] is Acinetobacter baumannii. The experiment in a line: Antibacterial activity against Multidrug resistant Acinetobacter baumannii AR 15-2 assessed as reduction in bacterial growth.
The subject of assay [15] is Acinetobacter baumannii. The assay is described as follows: Antibacterial activity against Multidrug resistant Acinetobacter baumannii AR 15-3 assessed as reduction in bacterial growth.
For assay [16], the system named is Acinetobacter baumannii. The assay is described as follows: Antibacterial activity against Multidrug resistant Acinetobacter baumannii AR 15-4 assessed as reduction in bacterial growth.
Assay [17] concerns Pseudomonas aeruginosa. The experiment in a line: Antibacterial activity against Pseudomonas aeruginosa ATCC 27853 assessed as reduction in bacterial growth.
Assay [18] relates to Enterococcus faecalis. The experiment in a line: Antibacterial activity against Enterococcus faecalis ATCC 51299 assessed as reduction in bacterial growth in the presence of Avibactam.
In assay [19] the test system is Escherichia coli. The assay is described as follows: Antibacterial activity against Escherichia coli ATCC 25922 assessed as reduction in bacterial growth in the presence of Avibactam.
In assay [20] the test system is Escherichia coli. The experiment in a line: Antibacterial activity against Escherichia coli ATCC 35218 assessed as reduction in bacterial growth in the presence of Avibactam.
The subject of assay [21] is Escherichia coli. The experiment in a line: Antibacterial activity against Escherichia coli NCTC 13353 assessed as reduction in bacterial growth in the presence of Avibactam.
Assay [22] has as its system Escherichia coli. The experiment in a line: Antibacterial activity against Escherichia coli 15-3 overexpressing extended spectrum beta-lactamases assessed as reduction in bacterial growth in the presence of Avibactam.
Assay [23] deals with Escherichia coli. The experiment in a line: Antibacterial activity against Escherichia coli 15-4 overexpressing extended spectrum beta-lactamases assessed as reduction in bacterial growth in the presence of Avibactam.
The subject of assay [24] is Escherichia coli. The experiment in a line: Antibacterial activity against Escherichia coli 15-5 overexpressing extended spectrum beta-lactamases assessed as reduction in bacterial growth in the presence of Avibactam.
Assay [25] has as its system Klebsiella pneumoniae. The experiment in a line: Antibacterial activity against Klebsiella pneumoniae ATCC 700603 assessed as reduction in bacterial growth in the presence of Avibactam.
Assay [26] relates to Klebsiella pneumoniae. The assay is described as follows: Antibacterial activity against Klebsiella pneumoniae ATCC BAA-1705 assessed as reduction in bacterial growth in the presence of Avibactam.
For assay [27], the system named is Klebsiella pneumoniae. The assay is described as follows: Antibacterial activity against Multidrug resistant Klebsiella pneumoniae KR 15-1 assessed as reduction in bacterial growth in the presence of Avibactam.
The subject of assay [28] is Klebsiella pneumoniae. The assay is described as follows: Antibacterial activity against Multidrug resistant Klebsiella pneumoniae KR 15-2 assessed as reduction in bacterial growth in the presence of Avibactam.
Assay [29] has as its system Klebsiella pneumoniae. The experiment in a line: Antibacterial activity against Multidrug resistant Klebsiella pneumoniae KR 15-3 assessed as reduction in bacterial growth in the presence of Avibactam.
Assay [30] relates to Acinetobacter baumannii. The assay is described as follows: Antibacterial activity against Acinetobacter baumannii NCTC 13304 assessed as reduction in bacterial growth in the presence of Avibactam.
Assay [31] has as its system Acinetobacter baumannii. The assay is described as follows: Antibacterial activity against Multidrug resistant Acinetobacter baumannii AR 15-2 assessed as reduction in bacterial growth in the presence of Avibactam.
Assay [32] concerns Acinetobacter baumannii. The assay is described as follows: Antibacterial activity against Multidrug resistant Acinetobacter baumannii AR 15-3 assessed as reduction in bacterial growth in the presence of Avibactam.
The test system of assay [33] is Acinetobacter baumannii. The experiment in a line: Antibacterial activity against Multidrug resistant Acinetobacter baumannii AR 15-4 assessed as reduction in bacterial growth in the presence of Avibactam.
The test system of assay [34] is Pseudomonas aeruginosa. The assay is described as follows: Antibacterial activity against Pseudomonas aeruginosa ATCC 27853 assessed as reduction in bacterial growth in the presence of Avibactam.

≈ marks a conversion by molar mass, not a printed value.

The MIC is the lowest concentration found to suppress growth. Turning to `Nc1nc(/C(=N/OCc2cc(=O)c(O)cn2O)C(=O)N[C@@H]2C(=O)N3C(C(=O)O)=C(Cl)CS[C@H]23)cs1`, the MIC was over 64 µg/mL in assay [1]; 2 µg/mL (≈ 3.68 µM) in assay [2]; 0.5 µg/mL (≈ 0.921 µM) in assay [3]; over 64 µg/mL in assay [4]; over 64 µg/mL in [5]; over 64 µg/mL in assay [6]. Moreover, the MIC in assay [7], in [8], in [9], in assay [10], in [11] and in assay [12] was over 64 µg/mL each time. In addition, the MIC was over 64 µg/mL in assay [13]; over 64 µg/mL in assay [14]; over 64 µg/mL in assay [15]; over 64 µg/mL in [16]; 4 µg/mL (≈ 7.37 µM) in [17]; over 64 µg/mL in assay [18]. The MIC is 0.125 µg/mL in [19]; 0.125 µg/mL in assay [20]; 1 µg/mL in assay [21]; 1 µg/mL in assay [22]; 1 µg/mL in [23]; 0.5 µg/mL in [24]. The MIC in assay [25] is over 64 µg/mL; in [26], 8 µg/mL; in assay [27], 2 µg/mL; in [28], 1 µg/mL; in [29], 1 µg/mL; in assay [30], 32 µg/mL. The MIC turned out to be 16 µg/mL in assay [31], 8 µg/mL in assay [32], 8 µg/mL in assay [33] and 1 µg/mL in assay [34].
With `C/C=C/C1=C(C(=O)O)N2C(=O)[C@@H](NC(=O)/C(=N\OCc3cc(=O)c(O)cn3O)c3csc(N)n3)[C@H]2SC1`, the MIC in assay [1] was over 64 µg/mL; in assay [2], 1 µg/mL (≈ 1.82 µM); in assay [3] it was 1 µg/mL (≈ 1.82 µM); in assay [4], over 64 µg/mL; in assay [5], over 64 µg/mL; in assay [6], over 64 µg/mL. Further, the MIC in [7] is over 64 µg/mL; in [8], 64 µg/mL (≈ 117 µM); in [9], 64 µg/mL (≈ 117 µM); in [10], over 64 µg/mL; in assay [11], over 64 µg/mL; in assay [12], over 64 µg/mL. Besides, the MIC in [13] was over 64 µg/mL; in [14], over 64 µg/mL; in assay [15], over 64 µg/mL; in assay [16], over 64 µg/mL; in [17], 16 µg/mL (≈ 29.2 µM).
For the compound `COCC1=C(C(=O)O)N2C(=O)[C@@H](NC(=O)/C(=N\OCc3cc(=O)c(O)cn3O)c3csc(N)n3)[C@H]2SC1`, the MIC in assay [1] was over 64 µg/mL; in [2] it was 2 µg/mL (≈ 3.62 µM); in assay [3], 0.25 µg/mL (≈ 0.452 µM); in [4] it was over 64 µg/mL; in [5], over 64 µg/mL; in assay [6], over 64 µg/mL. Also, the MIC in assay [7] is over 64 µg/mL; in [8] it was 64 µg/mL (≈ 116 µM); in assay [9] it was over 64 µg/mL; in [10], over 64 µg/mL; in assay [11], over 64 µg/mL; in assay [12], over 64 µg/mL. The MIC in [13] was over 64 µg/mL; in assay [14], over 64 µg/mL; in assay [15], over 64 µg/mL; in [16], over 64 µg/mL; in assay [17] it was 2 µg/mL (≈ 3.62 µM).
